Test results reported in the NIST ThermoML archive (doi:10.1016/j.jct.2016.03.026).
Numbers after ± are expanded uncertainties.

Assay: xn = mol fraction of the nth substance listed
Conditions: 283.15 K, Fluid (supercritical or subcritical phases), Vibrating tube method, x1 = 0.97

O=C=O [carbon dioxide] + CO
Conditions | mass density [kg/m3]
10450 kPa | 927.45 ± 0.8
10475 kPa | 927.61 ± 0.8
10500 kPa | 927.78 ± 0.8
10525 kPa | 927.92 ± 0.8
10550 kPa | 928.1 ± 0.8
10575 kPa | 928.27 ± 0.8
10600 kPa | 928.46 ± 0.8
10625 kPa | 928.66 ± 0.8
10650 kPa | 928.76 ± 0.8
10675 kPa | 928.84 ± 0.8
10700 kPa | 929 ± 0.8
10725 kPa | 929.16 ± 0.8
10750 kPa | 929.25 ± 0.8
10775 kPa | 929.45 ± 0.8
10800 kPa | 929.62 ± 0.8
10825 kPa | 929.74 ± 0.8
10850 kPa | 929.88 ± 0.8
10875 kPa | 930.06 ± 0.8
10900 kPa | 930.27 ± 0.8
10925 kPa | 930.41 ± 0.8
10950 kPa | 930.57 ± 0.8
10975 kPa | 930.73 ± 0.8
11000 kPa | 930.89 ± 0.8
11025 kPa | 931.03 ± 0.8
11050 kPa | 931.19 ± 0.8
11075 kPa | 931.33 ± 0.8
11100 kPa | 931.58 ± 0.8
11125 kPa | 931.69 ± 0.8
11150 kPa | 931.86 ± 0.8
11175 kPa | 932.02 ± 0.8
11200 kPa | 932.18 ± 0.8
11225 kPa | 932.34 ± 0.8
11250 kPa | 932.51 ± 0.8
11275 kPa | 932.67 ± 0.8
11300 kPa | 932.9 ± 0.8
11325 kPa | 933.08 ± 0.8
11350 kPa | 933.16 ± 0.8
11375 kPa | 933.37 ± 0.8
11400 kPa | 933.49 ± 0.8
11425 kPa | 933.66 ± 0.8
11450 kPa | 933.88 ± 0.8
11475 kPa | 933.98 ± 0.8
11500 kPa | 934.17 ± 0.8
11525 kPa | 934.39 ± 0.8
11550 kPa | 934.47 ± 0.8
11575 kPa | 934.64 ± 0.8
11600 kPa | 934.8 ± 0.8
11625 kPa | 934.96 ± 0.8
11650 kPa | 935.12 ± 0.8
11675 kPa | 935.29 ± 0.8
11700 kPa | 935.45 ± 0.8
11725 kPa | 935.61 ± 0.8
11750 kPa | 935.78 ± 0.8
11775 kPa | 935.94 ± 0.8
11800 kPa | 936.1 ± 0.8
11825 kPa | 936.26 ± 0.8
11850 kPa | 936.43 ± 0.8
11875 kPa | 936.59 ± 0.8
11900 kPa | 936.74 ± 0.8
11925 kPa | 936.92 ± 0.8
11950 kPa | 937.07 ± 0.8
11975 kPa | 937.23 ± 0.8
12000 kPa | 937.33 ± 0.8
12025 kPa | 937.53 ± 0.8
12050 kPa | 937.68 ± 0.8
12075 kPa | 937.82 ± 0.8
12100 kPa | 937.98 ± 0.8
12125 kPa | 938.14 ± 0.8
12150 kPa | 938.31 ± 0.8
12175 kPa | 938.47 ± 0.8
12200 kPa | 938.63 ± 0.8
12225 kPa | 938.8 ± 0.8
12250 kPa | 938.96 ± 0.8
12275 kPa | 939.1 ± 0.8
12300 kPa | 939.21 ± 0.8
12325 kPa | 939.37 ± 0.8
12350 kPa | 939.53 ± 0.8
12375 kPa | 939.7 ± 0.8
12400 kPa | 939.86 ± 0.8
12425 kPa | 940.02 ± 0.8
12450 kPa | 940.19 ± 0.8
12475 kPa | 940.27 ± 0.8
12500 kPa | 940.45 ± 0.8
12525 kPa | 940.59 ± 0.8
12550 kPa | 940.76 ± 0.8
12575 kPa | 940.92 ± 0.8
12600 kPa | 941.08 ± 0.8
12625 kPa | 941.25 ± 0.8
12650 kPa | 941.41 ± 0.8
12675 kPa | 941.57 ± 0.8
12700 kPa | 941.74 ± 0.8
12725 kPa | 941.87 ± 0.8
12750 kPa | 942.06 ± 0.8
12775 kPa | 942.16 ± 0.8
12800 kPa | 942.34 ± 0.8
12825 kPa | 942.47 ± 0.8
12850 kPa | 942.63 ± 0.8
12875 kPa | 942.8 ± 0.8
12900 kPa | 942.96 ± 0.8
12925 kPa | 943.13 ± 0.8
12950 kPa | 943.22 ± 0.8
12975 kPa | 943.37 ± 0.8
13000 kPa | 943.53 ± 0.8
13025 kPa | 943.7 ± 0.8
13050 kPa | 943.86 ± 0.8
13075 kPa | 944.02 ± 0.8
13100 kPa | 944.17 ± 0.8
13125 kPa | 944.27 ± 0.8
13150 kPa | 944.43 ± 0.8
13175 kPa | 944.59 ± 0.8
13200 kPa | 944.76 ± 0.8
13225 kPa | 944.92 ± 0.8
13250 kPa | 945.05 ± 0.8
13275 kPa | 945.17 ± 0.8
13300 kPa | 945.33 ± 0.8
13325 kPa | 945.49 ± 0.8
13350 kPa | 945.66 ± 0.8
13375 kPa | 945.77 ± 0.8
13400 kPa | 945.9 ± 0.8
13425 kPa | 946.06 ± 0.8
13450 kPa | 946.23 ± 0.8
13475 kPa | 946.39 ± 0.8
13500 kPa | 946.47 ± 0.8
13525 kPa | 946.63 ± 0.8
13550 kPa | 946.8 ± 0.8
13575 kPa | 946.94 ± 0.8
13600 kPa | 947.04 ± 0.8
13625 kPa | 947.2 ± 0.8
13650 kPa | 947.37 ± 0.8
13675 kPa | 947.53 ± 0.8
13700 kPa | 947.69 ± 0.8
13725 kPa | 947.78 ± 0.8
13750 kPa | 947.94 ± 0.8
13775 kPa | 948.1 ± 0.8
13800 kPa | 948.24 ± 0.8
13825 kPa | 948.4 ± 0.8
13850 kPa | 948.51 ± 0.8
13875 kPa | 948.67 ± 0.8
13900 kPa | 948.84 ± 0.8
13925 kPa | 948.95 ± 0.8
13950 kPa | 949.1 ± 0.8
13975 kPa | 949.24 ± 0.8
14000 kPa | 949.41 ± 0.8
14025 kPa | 949.51 ± 0.8
14050 kPa | 949.65 ± 0.8
14075 kPa | 949.82 ± 0.8
14100 kPa | 949.98 ± 0.8
14125 kPa | 950.11 ± 0.8
14150 kPa | 950.22 ± 0.8
14175 kPa | 950.39 ± 0.8
14200 kPa | 950.55 ± 0.8
14225 kPa | 950.7 ± 0.8
14250 kPa | 950.8 ± 0.8
14275 kPa | 950.96 ± 0.8
14300 kPa | 951.12 ± 0.8
14325 kPa | 951.2 ± 0.8
14350 kPa | 951.37 ± 0.8
14375 kPa | 951.51 ± 0.8
14400 kPa | 951.61 ± 0.8
14425 kPa | 951.77 ± 0.8
14450 kPa | 951.93 ± 0.8
14475 kPa | 952.09 ± 0.8
14500 kPa | 952.19 ± 0.8
14525 kPa | 952.37 ± 0.8
14550 kPa | 952.51 ± 0.8
14575 kPa | 952.59 ± 0.8
14600 kPa | 952.75 ± 0.8
14625 kPa | 952.93 ± 0.8
14650 kPa | 953.08 ± 0.8
14675 kPa | 953.17 ± 0.8
14700 kPa | 953.32 ± 0.8
14725 kPa | 953.48 ± 0.8
14750 kPa | 953.62 ± 0.8
14775 kPa | 953.73 ± 0.8
14800 kPa | 953.88 ± 0.8
14825 kPa | 954.02 ± 0.8
14850 kPa | 954.14 ± 0.8
14875 kPa | 954.28 ± 0.8
14900 kPa | 954.41 ± 0.8
14925 kPa | 954.57 ± 0.8
14950 kPa | 954.68 ± 0.8
14975 kPa | 954.79 ± 0.8
15000 kPa | 954.95 ± 0.8
15025 kPa | 955.09 ± 0.8
15050 kPa | 955.2 ± 0.8
15075 kPa | 955.36 ± 0.8
15100 kPa | 955.44 ± 0.8
15125 kPa | 955.6 ± 0.8
15150 kPa | 955.77 ± 0.8
15175 kPa | 955.88 ± 0.8
15200 kPa | 956.01 ± 0.8
15225 kPa | 956.18 ± 0.8
15250 kPa | 956.27 ± 0.8
15275 kPa | 956.42 ± 0.8
15300 kPa | 956.56 ± 0.8
15325 kPa | 956.66 ± 0.8
15350 kPa | 956.78 ± 0.8
15375 kPa | 956.93 ± 0.8
15400 kPa | 957.07 ± 0.8
15425 kPa | 957.17 ± 0.8
15450 kPa | 957.32 ± 0.8
15475 kPa | 957.47 ± 0.8
15500 kPa | 957.56 ± 0.8
15525 kPa | 957.72 ± 0.8
15550 kPa | 957.84 ± 0.8
15575 kPa | 957.97 ± 0.8
15600 kPa | 958.13 ± 0.8
15625 kPa | 958.22 ± 0.8
15650 kPa | 958.37 ± 0.8
15675 kPa | 958.52 ± 0.8
15700 kPa | 958.62 ± 0.8
15725 kPa | 958.78 ± 0.8
15750 kPa | 958.89 ± 0.8
15775 kPa | 959.05 ± 0.8
15800 kPa | 959.19 ± 0.8
15825 kPa | 959.3 ± 0.8
15850 kPa | 959.43 ± 0.8
15875 kPa | 959.55 ± 0.8
15900 kPa | 959.71 ± 0.8
15925 kPa | 959.84 ± 0.8
15950 kPa | 959.94 ± 0.8
15975 kPa | 960.09 ± 0.8
16000 kPa | 960.25 ± 0.8
16025 kPa | 960.33 ± 0.8
16050 kPa | 960.49 ± 0.8
16075 kPa | 960.6 ± 0.8
16100 kPa | 960.74 ± 0.8
16125 kPa | 960.89 ± 0.8
16150 kPa | 960.98 ± 0.8
16175 kPa | 961.15 ± 0.8
16200 kPa | 961.23 ± 0.8
16225 kPa | 961.39 ± 0.8
16250 kPa | 961.53 ± 0.8
16275 kPa | 961.63 ± 0.8
16300 kPa | 961.74 ± 0.8
16325 kPa | 961.89 ± 0.8
16350 kPa | 962.02 ± 0.8
16375 kPa | 962.15 ± 0.8
16400 kPa | 962.28 ± 0.8
16425 kPa | 962.42 ± 0.8
16450 kPa | 962.53 ± 0.8
16475 kPa | 962.61 ± 0.8
16500 kPa | 962.78 ± 0.8
16525 kPa | 962.86 ± 0.8
